In patent publication US11890285B2, “Combination therapies” (Mirati Therapeutics, Inc., priority 2019, dated 2024):
Several values for one entry are separate records, joined by “and”; a condition that tells them apart may be missing. Equal entries are not always repeated.

What was measured:
[1] = tested on: CT26.WT KRas G12C E3 clone tumors; assay: Tumor volumes of CT26.WT KRas G12C E3 clone tumor bearing mice, single agents and combination; type: in vivo, BALBc mice
Procedure: (§1) BALBc mice were inoculated in the right hind flank with 1×10^6 CT26.WT KRas G12C E3 cells harboring the KRas G12C mutation, and tumor volumes were measured using a caliper every two-three days and tumor volumes were calculated by the formula: […].
(§2) When tumor volumes reached between 200-400 mm^3 in size (Study Day 0), the mice were divided into four groups of 5 mice each. The first group was daily administered vehicle (10% Captisol in 50 mM citrate buffer pH 5.0) through Study Day 15 and also administered i.p. vehicle (BioXcel diluent) on Study Days 1, 4 and 7. The second group was […] a 10 mg/kg i.p. dose of the murine anti-PD-1 antibody (F26, BioXcel) at Days 1, 4 and 7.
At Study Day 39, four tumor-free mice from the combination group were rechallenged 1×10^6 CT26.WT KRas G12C E3 cells in the opposite left flank and mice were monitored for tumor growth for a period of twenty four days to determine whether a durable, adaptive immune response was observed.

[2] = tested on: CT26.WT KRas G12C E3 clone tumors; assay: Repeat study: tumor volumes of CT26.WT KRas G12C E3 clone tumor bearing mice, 10 animals per group; type: in vivo, BALBc mice; settings: for Tumor volume: individual mice
Procedure: as §1
In the second study the number of treated mice was increased from 5 animals per group to 10 animals per group.
as §2, with “volumes reach” for “volumes reached”, “of 10” for “of 5”, “Day 10” for “Day 15”

## C=C(F)C(=O)N1CCN(c2nc(OC[C@@H]3CCCN3C)nc3c2CCN(c2cccc4cccc(Cl)c24)C3)C[C@@H]1CC#N [Example 478]
[1]; 5 mice per group
  mice achieving a complete response: all five treated mice achieving a complete response after nine days of administration
[1]; Example 478 stopped at Study Day 29
  tumor regrowth / time without a detectable tumor: eventually tumor growth was detected at the original site of implantation in all five mice
[2]; 10 mice per group
  mice achieving a complete response: all ten treated mice achieving a complete response
[2]; Example 478 stopped at Study Day 25
  tumor regrowth / time without a detectable tumor: eventually tumor growth was detected in 6 out of 9 mice at the original site of implantation
[2]; Study Day 14, original implantation site (R), Example 478 100 mg/kg, F26 10 mg/kg i.p., listed as Example 47
  Tumor volume: 0 mm^3 (9×) and 4 mm^3
[2]; Study Day 17, original implantation site (R), Example 478 100 mg/kg, F26 10 mg/kg i.p., listed as Example 47
  Tumor volume: 0 mm^3 (8×) and 32 mm^3
[2]; Study Day 19, original implantation site (R), Example 478 100 mg/kg, F26 10 mg/kg i.p., listed as Example 47
  Tumor volume: 51 mm^3 and 0 mm^3 (5×) and 875 mm^3 and 32 mm^3 and 371 mm^3 and 63 mm^3
[2]; Study Day 21, original implantation site (R), Example 478 100 mg/kg, F26 10 mg/kg i.p., listed as Example 47
  Tumor volume: 268 mm^3 and 0 mm^3 (5×) and 1320 mm^3 and 139 mm^3 and 762 mm^3 and 274 mm^3
[2]; Study Day 24, original implantation site (R), Example 478 100 mg/kg, F26 10 mg/kg i.p., listed as Example 47
  Tumor volume: 877 mm^3 and 0 mm^3 (5×) and 2470 mm^3 and 588 mm^3 and 1498 mm^3 and 291 mm^3
[2]; Study Day 26, original implantation site (R), Example 478 100 mg/kg, F26 10 mg/kg i.p., listed as Example 47
  Tumor volume: 1237 mm^3 and 0 mm^3 (4×) and 923 mm^3 and 1699 mm^3 and 14 mm^3
[2]; Study Day 28, original implantation site (R), Example 478 100 mg/kg, F26 10 mg/kg i.p., listed as Example 47
  Tumor volume: 1371 mm^3 and 0 mm^3 (4×) and 1056 mm^3 and 2035 mm^3 and 14 mm^3
[2]; Study Day 31, original implantation site (R), Example 478 100 mg/kg, F26 10 mg/kg i.p., listed as Example 47
  Tumor volume: 2334 mm^3 and 0R 0L mm^3 (4×) and 2113 mm^3 and 161 mm^3
[2]; Study Day 31, site of re-challenge (L)
  Tumor volume: 0R 0L mm^3
[2]; Study Day 33, original implantation site (R), Example 478 100 mg/kg, F26 10 mg/kg i.p., listed as Example 47
  Tumor volume: 0R 0L mm^3 and 289 mm^3 and 63 mm^3 and 32 mm^3 and 4 mm^3
[2]; Study Day 33, site of re-challenge (L), listed as Example 47
  Tumor volume: 0R 0L mm^3 and 0 mm^3 (3×)
[2]; Study Day 38, original implantation site (R), Example 478 100 mg/kg, F26 10 mg/kg i.p., listed as Example 47
  Tumor volume: 0R 0L mm^3 and 425 mm^3 and 318 mm^3 and 124 mm^3 and 63 mm^3
[2]; Study Day 38, site of re-challenge (L), listed as Example 47
  Tumor volume: 0R 0L mm^3 and 0 mm^3 (3×)
[2]; Study Day 40, original implantation site (R), Example 478 100 mg/kg, F26 10 mg/kg i.p., listed as Example 47
  Tumor volume: 0R 0L mm^3 and 464 mm^3 and 511 mm^3
[2]; Study Day 40, site of re-challenge (L), listed as Example 47
  Tumor volume: 0R 0L mm^3 and 0 mm^3 (2×)
